Measured values reported in US8193235B2, “Compositions and methods for establishing and maintaining stem cells in an undifferentiated state” (University of Kansas, priority 2009, dated 2012).
“Also recorded” adds a separate entry of the source.

Experiments:
[1] = test system: human ES cells (H9 cells); assay: Human ES cells in feeder-free culture, MEF-conditioned medium; assay type: cell-based
ES cells = assay: Quantitative Clonal Assay (survival at clonal density); assay type: cell-based, mouse; conditions: ≦10 μM
Description: Quantitative Clonal Assay. ES and iPS cells were dissociated into single cells using 0.05% trypsin/EDTA and 2-20 cells were plated on each well of a 96-well culture plate. The cells were cultured for 6-7 days, colonies were stained for Nanog, and the number of Nanog positive colonies was counted. […] This procedure was repeated for five consecutive passages (>30 days).

GSK-3α or GSK-3β = assay: GSK3 phosphorylation in mESCs; assay type: cell-based, mouse
Description: (§1) E14 ES Cell Cultures. Cells were grown in ES-IMDM media (Lonza, Walkersville, Md.) in a feeder-free condition. ES-IMDM was supplemented with 15% serum, 10^5 U/100 ml of LIF (ESGRO, Millipore, Calif.) and 0.0124% monothioglycerol (MTG; Sigma Aldrich). Cells were grown for 3-5 days with change of medium every day. For inducing differentiation in monolayer culture and to determine the effect of Gö6983 in preventing differentiation, E14 cells were cultured on gelatin-coated plastics for 8 days without LIF. Details of experiments performed at clonal-density are described herein. To maintain E14 cells with Gö6983, serum supplemented ES-IMDM was used in the presence of 5 μM Gö6983 and was passed after every 3-5 days. For all assays involving elucidation of different signaling mechanism responsible for maintenance of pluripotency, cells from a ˜70% confluent ES culture plate were washed two times with 1× phosphate-buffered saline (PBS), trypsinized and plated on a 6-well tissue culture plate and treated with or without LIF or Gö6983 or different inhibitors for ˜10 hours followed by preparation of protein lysates and RNA. The PKCζ knocked-down E14 cells that were generated in this study were maintained in serum supplemented ES-IMDM on gelatin-coated plates in the absence of Gö6983 or LIF or any other inhibitor and passed after 3-5 days. […]

Akt = Akt phosphorylation in mESCs; assay type: cell-based, mouse
Description: as §1

[2] = test system: canonical Wnt reporter (TOPFLASH reporter); assay: TOPFLASH luciferase reporter assay; assay type: cell-based, mouse; conditions: mESCs
Description: TOPFLASH Luciferase Reporter Assay. […] were transfected with 0.5 μg of SUPER8XTOPFlash and 20 ng of phRL Renilla luciferase vectors per well using LIPOFECTAMINE (Invitrogen). Transfected cells were cultured with or without LIF, or Wnt3a-conditioned medium, or with Gö6983, and luciferase activity was measured after 48 hours of transfection using Dual-Luciferase Reporter Assay System (Promega).

p90Rsk1 (Rsk1) = assay: Phosphorylation of p90Rsk1; assay type: cell-based, mouse; conditions: Gö6983 alone
Description: (§2) Western Blot Analysis. Whole cell lysates were prepared in SDS-gel loading buffer and resolved by 10% PAGE. The antibodies used for this study included β-actin Clone AC-15 from Sigma; p-STAT3 (Tyr705), p-p44/42 MAPK (tyr202/tyr204), p44/42 MAPK, GSK3β, Phospho Akt (Ser473), Akt, p-NFκβ p65 (Ser536), c-Myc, p-c-Myc (Thr58/Ser62), p-p90RSK (Thr359/Ser363), RSK1, Suz12 (D39F6), and Ezh2 (AC22) from Cell Signaling Technology; STAT3 (C-20), Oct-4 (C-10), Nanog (M-149), PKC α (C-20), PKC βI (C-16), PKC βII (C-18), PKC γ (C-19), PKC δ (C-20), PKC ζ (c-20), p-PKC ζ (Thr 410)-R, p-NFκβ p65 (ser311), and RelA (p65) from Santa Cruz Biotechnology; p-LGL1/LGL2 (S650/S654), SSEA4and H3K4Me3 from Abcam; LGL2 (M06), clone 4G2 from Abnova; β-Catenin from BD Transduction Laboratories, and H3K27Me3 and H3K9Me3 from Millipore.

C57BL/6 blastocysts = assay: Chimera generation and germ-line transmission by blastocyst injection; assay type: in vivo, mouse
Description: Chimera Generation and Germ-Line Transmission. Prepubertal (3 weeks of age) donor C57BL/6 female mice (Jackson Laboratory, Bar Harbor, Me.) were superovulated, mated overnight to intact C57BL/6 stud males and euthanized by cervical dislocation on day 3.5. Uteri were collected after euthanasia and flushed with M2 medium (Millipore, Bilerica, Mass.) for the collection of blastocysts. Eight to ten ES or iPS cells were injected into the blastocoel of each blastocyst. After injection, the blastocysts were surgically transferred into recipient females that were pseudopregnant by mating with vasectomized males. Recipient females carried the pups to term and nursed until weaning at three weeks. High-level chimeras, generated from newly derived ES cells, were mated with C57BL/6 adult mice to test for germline transmission.

PKC ζ = target: T1, PKC ζ (Mus musculus, UniProt Q02956); assay: Western blot analysis of p-PKC ζ in ES cells; assay type: cell-based
T1 construct: endogenous in cells; host or cells: mouse ES cells (E14)
Description: as §2

ERK1/2 = ERK1/2 phosphorylation in ES cells; assay type: cell-based, mouse; conditions: Gö6983 alone
Description: as §1

PKC μ = PKC μ (Homo sapiens, UniProt Q15139); conditions: higher concentrations; cited from earlier work
Eed−/− ES cells = Eed−/− ES cells on collagen IV without LIF
Description: Eed^−/− ES Cells. Eed^−/− ES cells, passage 4, were maintained in same medium as mentioned for Ezh2^−/− cells but supplemented with extra LIF (2000 U/ml) to suppress spontaneous differentiation.

Chain of PKC μ (Q15139 whole entry): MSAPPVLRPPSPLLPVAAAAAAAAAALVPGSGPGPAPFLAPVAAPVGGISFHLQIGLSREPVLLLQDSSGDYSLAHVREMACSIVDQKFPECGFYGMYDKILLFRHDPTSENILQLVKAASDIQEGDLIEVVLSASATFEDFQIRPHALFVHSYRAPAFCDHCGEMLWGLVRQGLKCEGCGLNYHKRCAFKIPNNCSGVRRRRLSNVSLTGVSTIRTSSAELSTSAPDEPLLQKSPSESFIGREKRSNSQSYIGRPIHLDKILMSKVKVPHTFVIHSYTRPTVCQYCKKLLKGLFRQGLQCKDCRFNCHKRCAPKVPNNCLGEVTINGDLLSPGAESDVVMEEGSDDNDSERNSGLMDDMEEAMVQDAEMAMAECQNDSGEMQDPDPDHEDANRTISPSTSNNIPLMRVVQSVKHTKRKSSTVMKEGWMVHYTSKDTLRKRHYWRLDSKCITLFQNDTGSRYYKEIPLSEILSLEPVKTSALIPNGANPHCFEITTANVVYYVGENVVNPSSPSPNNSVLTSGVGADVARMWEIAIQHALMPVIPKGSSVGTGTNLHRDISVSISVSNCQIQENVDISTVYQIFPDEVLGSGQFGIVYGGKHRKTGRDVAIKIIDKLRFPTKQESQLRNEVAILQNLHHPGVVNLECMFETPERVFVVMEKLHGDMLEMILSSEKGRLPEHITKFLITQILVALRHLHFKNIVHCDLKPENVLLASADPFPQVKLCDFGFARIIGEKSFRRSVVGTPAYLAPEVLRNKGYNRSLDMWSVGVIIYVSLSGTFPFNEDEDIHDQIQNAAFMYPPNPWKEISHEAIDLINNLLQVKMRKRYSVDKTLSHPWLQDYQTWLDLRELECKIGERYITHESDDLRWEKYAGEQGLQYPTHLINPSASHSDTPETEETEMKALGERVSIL
T1 sequence (Q02956 whole entry): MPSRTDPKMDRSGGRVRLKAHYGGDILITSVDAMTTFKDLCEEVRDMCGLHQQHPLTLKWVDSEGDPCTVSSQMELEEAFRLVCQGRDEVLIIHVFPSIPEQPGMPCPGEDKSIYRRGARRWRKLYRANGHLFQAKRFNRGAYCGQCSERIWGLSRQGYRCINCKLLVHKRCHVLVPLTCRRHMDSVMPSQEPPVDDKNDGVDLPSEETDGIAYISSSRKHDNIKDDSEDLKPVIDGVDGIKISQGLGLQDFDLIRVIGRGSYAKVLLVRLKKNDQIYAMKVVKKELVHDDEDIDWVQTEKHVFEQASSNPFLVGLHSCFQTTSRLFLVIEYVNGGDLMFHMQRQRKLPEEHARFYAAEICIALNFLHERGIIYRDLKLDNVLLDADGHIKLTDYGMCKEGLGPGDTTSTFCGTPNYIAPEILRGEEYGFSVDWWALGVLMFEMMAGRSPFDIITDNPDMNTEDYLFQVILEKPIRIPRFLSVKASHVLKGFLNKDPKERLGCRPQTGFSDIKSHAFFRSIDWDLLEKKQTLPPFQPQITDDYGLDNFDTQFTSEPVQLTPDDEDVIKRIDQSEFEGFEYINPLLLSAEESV

## COc1ccc2c(c1)c(C1=C(c3c[nH]c4ccccc34)C(=O)NC1=O)cn2CCCN(C)C [Gö6983, 3-[1-[3-(dimethylamino)propyl]5-methoxy-1H-indol-3-yl]-4-(1H-indol-3-yl)-1H-pyrrole-2,5-dione]
[1]; MEF-conditioned medium, multiple passages
  undifferentiated morphology and SSEA4 expression of human ES cells: maintained their undifferentiated morphology and expression of pluripotency marker
[1]; versus TeSR1 medium or conditioned medium with bFGF, FIG. 5
  SSEA4 expression in H9 colonies: sustained high levels of SSEA4 expression; also recorded: comparable
[1]; versus conditioned medium alone
  Oct4 protein expression in human ES cells: High levels of Oct4 protein expression
ES cells
  loss in ES cell survival at clonal density: no significant loss
GSK-3α or GSK-3β
  phosphorylation of GSK-3α or GSK-3β: did not significantly change
Akt
  Akt phosphorylation: not associated with Akt phosphorylation
[2]
  TOPFLASH reporter activity: did not induce
p90Rsk1 (Rsk1)
  phosphorylation of Rsk1: not inhibited
C57BL/6 blastocysts; 7 passages with Gö6983, injected into C57Bl/6 blastocysts
  chimera generation from E14 ES cells maintained with Gö6983: yielded multiple chimeric mice; also recorded: efficiently generated chimeras
C57BL/6 blastocysts; E14 cells, 59 blastocysts injected, 7 pups
  Chimera #: 5
C57BL/6 blastocysts; ES 1 (line derived with Gö6983)
  # of Chimera showing Germline Transmission: 3
C57BL/6 blastocysts; ES 1 (line derived with Gö6983), 45 blastocysts injected, 15 pups
  Chimera #: 5
C57BL/6 blastocysts; ES 2 (line derived with Gö6983)
  # of Chimera showing Germline Transmission: 2
C57BL/6 blastocysts; ES 2 (line derived with Gö6983), 38 blastocysts injected, 6 pups
  Chimera #: 2
C57BL/6 blastocysts; iPSC 1, 18 blastocysts injected, 5 pups
  Chimera #: 3
C57BL/6 blastocysts; iPSC 2, 30 blastocysts injected, 6 pups
  Chimera #: 3
C57BL/6 blastocysts; injected into blastocysts
  chimera generation from Gö6983-derived iPS cells: generate chimeric mice
C57BL/6 blastocysts; two lines after six passages, chimeras crossed with C57BL/6 adults
  chimera and germline contribution of Gö6983-derived ES cells: successfully generated adult chimera, which produced germline offsprings
PKC ζ
  PKC ζ phosphorylation in ES cells: almost completely inhibited
ERK1/2
  ERK1/2 phosphorylation: did not inhibit
PKC μ
  concentration that inhibits isoform PKC μ: > 20 µM
Eed−/− ES cells; collagen IV without LIF
  colony morphology and pluripotency markers of Eed−/− cells: largely maintained undifferentiated colony morphology and expression of pluripotency markers
Eed−/− ES cells; in the presence of Gö6983
  expression of developmental regulator genes in Eed−/− cells: significantly induced
